Assay results from patent publication US11279733B2, “Peptide antibiotics” (priority 2017, dated 2022).
Converted amounts (≈) assume the structure as drawn. Positions of bridges follow the written chain, without caps; N, C: chain ends. Non-standard residues stand in square brackets, D forms with d. Residues, ends and D or L forms follow the SMILES beside them. *: point of attachment. Decanoyl(3R-OH) = CCCCCCC[C@@H](O)CC(=O)*; dBip = N[C@H](Cc1ccc(-c2ccccc2)cc1)C(=O)O; dDab = NCC[C@@H](N)C(=O)O; Dab = NCC[C@H](N)C(=O)O; Dap = NC[C@H](N)C(=O)O

What was measured:
[1] = In vitro nephrotoxicity, GGT release from primary human kidney cells; type: cell-based; settings: pH 7.4
Source text: (§1) hPT cells were derived from whole human kidneys procured by the International Institute for the Advancement of Medicine (Edison, N.J., USA). All tissue was scored by a pathologist as normal (i.e., derived from non-cancerous, non-diseased tissue). Cell isolation procedures were based on those originally described by Todd et al. (1996) and modified (Cummings and Lash, 2000; Cummings et al., 2000) with use of sterile conditions (i.e., all instruments and glassware were autoclaved and all buffers were filtered through a 0.2-μm pore-size filter). Renal cortex and outer stripe were cut into slices, washed with sterile PBS, minced, and the pieces were placed in a trypsinization flask filled with 300 ml of sterile, filtered Hanks' buffer, containing 25 mM NaHCO3, 25 mM HEPES, pH 7.4, 0.5 mM EGTA, 0.2% (w/v) bovine serum albumin, 50 μg/ml gentamicin, 1.3 mg/mL collagenase, and 0.59 mg/ml CaCl2), which was filtered prior to use. Whole kidneys were perfused with Wisconsin medium and kept on ice until they arrived at the laboratory, which was usually within 24 h of removal from the donor.
(§2) All buffers were continuously bubbled with 95% O2/5% CO2 and were maintained at 37° C. Minced cortical pieces from whole kidneys were subjected to collagenase digestion for 60 min, after which the supernatant was filtered through a 70-μm mesh filter to remove tissue fragments, centrifuged at 150×g for 7 min, and the pellet resuspended in Dulbecco's Modified Eagle's Medium: Ham's F12 Medium (DMEM/F12; 1/1). Approximately 5 to 7×10^6 cells were obtained per 1 g of human kidney cortical tissue.
(§3) hPT cells were resuspended in 2 mL of DMEM/F12 and diluted to 500 mL with cell culture medium, which was serum-free and hormonally-defined. Composition of this supplemented medium was based on earlier work establishing optimal conditions for primary culture of rat PT cells (Lash et al., 1995). Basal medium was a 1:1 mixture of DMEM/F12. […] Cells were seeded in a volume of 0.5 ml at a density of 50-100 μg protein per cm^2 (0.5-1.0×10^6 cells/ml) on 24-well plates. Cultures were grown at 37° C. in a humidified incubator under an atmosphere of 95% air/5% CO2 at pH 7.4. Cultures were grown to approximately 80%-90% confluence (generally 5-6 days) prior to experiments. Cells were harvested by either scraping the flasks with a Teflon scraper or by brief incubation with Cellstripper (Cellgro, Herndon, Va., USA) (in Ca^2+- and Mg^2+-free Hanks' buffer).
Release of gamm-glutanyltransferase was assessed according to Orlowski, M., Meister, A. 1963. γ-Glutamyl-p-nitroanilide: A new convenient substrate for determination and study of L- and D-γ-glutamyltranspeptidase activities (Biochim. Biophys. Acta 73: 679-681.)
A 2.5 mM substrate Solution was prepared from 67 mg γ-glutamyl-p-nitroanilide+264 mg glycylglycine in 100 mL of 0.05 M Tris, pH 8.2 (50 mM Tris, pH 8.2: 605 mg Tris/HCl per 100 mL).
For the assay in 96-well plates, 6-μL of sample and 0.3 mL substrate solution were added to each well. The absorbance was measured at 410 nm for the appearance of product, p-nitroanilide (molar extinction=8800 M^−1 cm^−1).

[2] = In vitro nephrotoxicity, LDH release from primary human kidney cells; type: cell-based; settings: pH 7.4
Source text: as §1, §2, §3

[3] = system: K. pneumoniae ATCC BAA-2146, NDM-1 pos; settings: ATCC BAA-2146
Summary of the method: (§4)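 Mid-log cultures grown in Mueller Hinton broth at 37° C were tested by 2-fold broth microdilution at 5×10^5 CFU/mL final. Compounds were dissolved in water and tested over a final range of 32 to 0.015 μg/mL.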

[4] = system: K. pneumoniae GN_102 PmxR; settings: GN 102 PmxR
Summary of the method: as §4

[5] = system: A. baumannii ATCC 19606; settings: ATCC 19606
Summary of the method: as §4

[6] = system: K. pneumoniae ATCC 700603, MDR; settings: ATCC 700603
Summary of the method: as §4

[7] = system: A. baumannii GN_093 PmxR; settings: GN 093 PmxR
Summary of the method: as §4

[8] = system: K. pneumoniae ATCC 13883; settings: ATCC 13883
Summary of the method: as §4

[9] = system: K. pneumoniae GN_106, PmxR; settings: GN 106, PmxR
Summary of the method: as §4

[10] = system: P. aeruginosa GN_043, PmxR; settings: polymyxin-resistant
Summary of the method: as §4

[11] = system: P. aeruginosa GN_105, PmxR; settings: GN 105, PmxR
Summary of the method: as §4

[12] = system: P. aeruginosa ATCC 27853; settings: ATCC 27853
Summary of the method: as §4

[13] = system: E. coli ATCC 25922; settings: ATCC 25922
Summary of the method: as §4

[14] = system: S. aureus ATCC 25923, MSSA; settings: ATCC 25923
Summary of the method: as §4

**Q.** For `CCCCCCC[C@@H](O)CC(=O)N[C@H](CCN)C(=O)N[C@H]1CCNC(=O)[C@H](CC(C)C)NC(=O)[C@H](CCN)NC(=O)[C@H](CCN)NC(=O)[C@H](CC(C)C)NC(=O)[C@@H](Cc2ccccc2)NC(=O)[C@H](CCN)NC1=O` [Octapeptin C4, octapeptin C4, reference compound] ({Decanoyl(3R-OH)}-[dDab][Dab][Dab][dF]L[Dab][Dab]L; lactam 2-C), which CC50 [1] is on record?
**A.** > 128 µg/mL

**Q.** What about the CC50 [2] of the same compound?
**A.** 62 µg/mL (≈ 59.4 µM)

**Q.** For `CCCCCCC[C@@H](O)CC(=O)N[C@H](CCN)C(=O)N[C@H]1CCNC(=O)[C@H](CC(C)C)NC(=O)[C@H](CCN)NC(=O)[C@H](CCCCN)NC(=O)[C@H](CC(C)C)NC(=O)[C@@H](Cc2ccccc2)NC(=O)[C@H](CCN)NC1=O` [compound 992, 3(R)OH-nC9CO-D-Dab-cyc[L-Dab-L-Dab-D-Phe-L-Leu-L-Lys-L-Dab-L-Leu]] ({Decanoyl(3R-OH)}-[dDab][Dab][Dab][dF]LK[Dab]L; lactam 2-C), which CC50 [1] is on record?
**A.** > 128 µg/mL

**Q.** And the CC50 [2]?
**A.** 114 µg/mL (≈ 106 µM)

**Q.** And the “MIC, K. pneumoniae ATCC BAA-2146, NDM-1 pos” value [3]?
**A.** 2 µg/mL (≈ 1.86 µM)

**Q.** And the “MIC, K. pneumoniae Cl Koprana 10065 0661:1, PmxR” value [4]?
**A.** 4 µg/mL (≈ 3.73 µM)

**Q.** What about the “MIC, A. baumannii ATCC 19606” value [5] of the same compound?
**A.** 2 µg/mL (≈ 1.86 µM)

**Q.** What about the “MIC, K. pneumoniae ATCC 700603, MDR” value [6] of the same compound?
**A.** 2 µg/mL (≈ 1.86 µM)

**Q.** And the “MIC, A. baumannii Cl Ptyela 10073 4512:2, PmxR” value [7]?
**A.** 8 µg/mL (≈ 7.46 µM)

**Q.** And the “MIC, K. pneumoniae ATCC 13883” value [8]?
**A.** 2 µg/mL (≈ 1.86 µM)

**Q.** What about the “MIC, K. pneumoniae Cl 138-16347-20362, PmxR” value [9] of the same compound?
**A.** 4 µg/mL (≈ 3.73 µM)

**Q.** And the “MIC, P. aeruginosa FADDI-PA070, PmxR” value ([10]; Table 5)?
**A.** 2 µg/mL (≈ 1.86 µM)

**Q.** What about the “MIC, P. aeruginosa PA9704, PmxR” value [11] of the same compound?
**A.** 4 µg/mL (≈ 3.73 µM)

**Q.** What about the “MIC, P. aeruginosa ATCC 27853” value [12] of the same compound?
**A.** 2 µg/mL (≈ 1.86 µM)

**Q.** And the “MIC, E. coli ATCC 25922” value [13]?
**A.** 2 µg/mL (≈ 1.86 µM)

**Q.** What about the “MIC, S. Aureus ATCC 25923, MSSA” value [14] of the same compound?
**A.** 16 µg/mL (≈ 14.9 µM)

**Q.** What does the source list for `CCCCCCC[C@@H](O)CC(=O)N[C@H](CCN)C(=O)N[C@H]1CCNC(=O)[C@H](CC(C)C)NC(=O)[C@H](CN)NC(=O)[C@H](CCN)NC(=O)[C@H](CC(C)C)NC(=O)[C@@H](Cc2ccc(-c3ccccc3)cc2)NC(=O)[C@H](CCN)NC1=O` [compound 5383, 3(R)OH-nC9CO-D-Dab-cyc[L-Dab-L-Dab-D-Bip-L-Leu-L-Dab-L-Dap-L-Leu]] ({Decanoyl(3R-OH)}-[dDab][Dab][Dab][dBip]L[Dab][Dap]L; lactam 2-C)?
**A.** CC50 [1]: > 128 µg/mL; CC50 [2]: > 128 µg/mL; MIC K. pneumoniae ATCC BAA-2146, NDM-1 pos [3]: 4 µg/mL (≈ 3.62 µM); MIC K. pneumoniae GN_102 PmxR [4]: 8 µg/mL (≈ 7.23 µM); MIC A. baumannii ATCC 19606 [5]: 4 µg/mL (≈ 3.62 µM); MIC K. pneumoniae ATCC 700603, MDR [6]: 4 µg/mL (≈ 3.62 µM); MIC A. baumannii GN_093 PmxR [7]: 4 µg/mL (≈ 3.62 µM); MIC K. pneumoniae ATCC 13883 [8]: 4 µg/mL (≈ 3.62 µM); MIC K. pneumoniae GN_106, PmxR [9]: 8 µg/mL (≈ 7.23 µM); MIC P. aeruginosa GN_043, PmxR [10]: 2 µg/mL (≈ 1.81 µM); MIC P. aeruginosa GN_105, PmxR [11]: 2 µg/mL (≈ 1.81 µM); MIC P. aeruginosa ATCC 27853 [12]: 2 µg/mL (≈ 1.81 µM); MIC E. coli ATCC 25922 [13]: 4 µg/mL (≈ 3.62 µM); MIC S. aureus ATCC 25923, MSSA [14]: 2 µg/mL (≈ 1.81 µM)
